Reference: PubChem BioAssay AID1963439 (Molecular Pharmacology Branch, DTP, NCI, 2024)

Tested on: NCI-H196 complex spheroids with HUVEC/MSC, growth % T/C
Experiment: Anticancer human tumor NCI-H196 cell line growth inhibition [Asc];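 note: spheroids exposed to compound for 7 days before measurement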;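 for viability, T/C: 100% = DMSO vehicle control wells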
Conditions: for IC50: curve of first compound; for viability, T/C: stronger effect = lower value; active = viability on the fitted dose curve at most 10% of control; inactive = the rest
Experimental: Multicellular complex tumor spheroid response to apoptosis pathway targeting inhibitors Alrizomadlin, Pelcitoclax, and Dasminapant in combination with a variety of drugs and investigational agents in selected tumor cell lines
The MDM2 inhibitor alrizomadlin, the Bcl-2/Bcl-xL inhibitor pelcitoclax, and the IAPs inhibitor dasminapant were evaluated both individually and in combination with standard of care and investigational anticancer small molecules within a complex spheroid model of solid tumors. . Complex spheroids include a stromal component modeled by human endothelial cells (HUVEC) and fibroblasts modeled by human mesenchymal stem cells (MSCs). The concentration ranges selected for each drug and investigational agent were based upon clinically achievable concentrations if the clinical Cmax of the agent was known.
Compounds. The drugs and investigational agents: alrizomadlin (APG-115; NSC831270), pelcitoclax (APG-1252; NSC835773), dasminapant (APG-1387;NSC834197), TAK-243 (NSC785004), copanlisib (NSC809693), olaparib (NSC753686), talazoparib (NSC767125), cobimetinib (NSC 768068), eltanexor (KPT-8602, NSC 794443), abemaciclib (NSC 768073), sotorasib (NSC818433), adagrasib (NSC 831453), MRTX-1133 (NSC 836407), Iadademestat (ORY1001, NSC 806812), and RMC-4630 (NSC839698), were obtained from the NCI Developmental Therapeutics Program Chemical Repository. The FDA-approved anticancer drug set is available from the Developmental Therapeutics Program at https://dtp.cancer.gov/organization/dscb/obtaining/available plates.htm. […] The stock solutions were prepared in dimethyl sulfoxide (DMSO, Sigma-Aldrich, St. Louis, MO, cat. D2650) at 800-fold the tested concentration and stored at -70 degrees C prior to their use. All drugs and investigational agents were tested over a range starting from a high concentration at or near the clinical Cmax and decreasing in half-log increments. If the clinical Cmax for an agent had not been determined, the highest concentration tested was 10 microM.
The patient-derived cancer (PDC) cell lines include five colon adenocarcinomas: 186277-243-T-J2-PDC, 616215-338-R-J1-PDC, 439559-082-T-J2-PDC, 463943-066-T-J2-PDC, and 519858-162-T-J1-PDC; three pancreatic carcinomas: 323965-272-R-J2-PDC, 521955-158-R6-J3-PDC, and 521955-158-R2-J5-PDC; two uterine sarcomas: 327498-152-R-J2-PDC and 993429-296-R-J1-PDC; two rhabdomyosarcomas: 755483-174-R-J1-PDC and 772245-204-R-J1-PDC; two soft tissue sarcomas: 126254-015-R-J1-PDC and 494315-158-R-J1-PDC; two malignant fibrous histiocytomas: 317291-083-R-J1-PDC and 596521-263-R-J1-PDC; two breast carcinomas: 171881-019-R-J1-PDC and 885512-296-R-J2-PDC; and one ovarian carcinoma: 6556581-035-R-J-PDC were obtained from the NCI PDMR, (https://pdmr.cancer.gov). The established cell lines HSSY-2 synovial sarcoma (RRID:CVCL 8719), SYO-1 synovial sarcoma (RRID:CVCL_7146), MPNST malignant peripheral neural sheath tumor were obtained from the Sloan Kettering Institute. The following established cell lines were purchased from the American Type Culture Collection (ATCC, Manassas, VA), Sor the received from the NCI repository:, PANC-1 pancreatic carcinoma (CRL-1469, RRID:CVCL_0480), OVCAR-5 ovarian carcinoma (RRID:CVCL_1628), OVCAR-8 ovarian carcinoma (RRID:CVCL_1629), , MCF-7 breast carcinoma (CRL-12584, RRID:CVCL_0031), MDA-MB-231 breast carcinoma (CRL-12532, RRID:CVCL_0062), NCI-H1876 small cell lung carcinoma (CRL-5902, RRID:CVCL_1503), NCI-H510A small cell lung carcinoma (HTB-184, RRID:CVCL_1565), NCI-H1417 (CRL-5869, RRID:CVCL_1469), and NCI-H196 small cell lung carcinoma (CRL-5823, RRID:CVCL_1509). Dr. Peter Houghton (Greehey Children's Cancer Research Institute, University of Texas Health Science Center, San Antonio, TX) provided Rh-18 rhabdomyosarcoma (RRID:CVCL_1659). Pooled donor human umbilical vein endothelial cells (HUVEC, Lonza, cat. CC-2519) and human mesenchymal stem cells (hMSC, Lonza, cat. PT-2501) were purchased from Lonza (Walkersville, MD).
Cell Culture. […]

C=CC(=O)N1CCN(c2nc(=O)n(-c3c(C)ccnc3C(C)C)c3nc(-c4c(O)cccc4F)c(F)cc23)C(C)C1 (stereo not given) + Cc1c(S(C)(=O)=O)c(-c2cc(F)cc(N3CCN(c4ccc(NS(=O)(=O)c5ccc(NC(CCN6CCC(C(=O)OCCCP(=O)(O)O)CC6)CSc6ccccc6)c(S(=O)(=O)C(F)(F)F)c5)cc4)CC3)c2)c(-c2ccc(Cl)cc2)n1C(C)C
> 10000 nM: IC50 (second compound 0.1 µM) | IC50 (second compound 0.316 µM) | IC50 (second compound 1 µM) | IC50 (second compound 3.16 µM) | IC50 (second compound 10 µM)
inactive: viability, T/C (second compound 0.1 µM, first compound 0.0316 µM) 103% | viability, T/C (second compound 0.1 µM, first compound 0.1 µM) 93.2% | viability, T/C (second compound 0.1 µM, first compound 0.316 µM) 96.1% | viability, T/C (second compound 0.1 µM, first compound 1 µM) 102% | viability, T/C (second compound 0.1 µM, first compound 3.16 µM) 96% | viability, T/C (second compound 0.1 µM, first compound 10 µM) 97.9% | viability, T/C (second compound 0.316 µM, first compound 0.0316 µM) 92.1% | viability, T/C (second compound 0.316 µM, first compound 0.1 µM) 97.4% | viability, T/C (second compound 0.316 µM, first compound 0.316 µM) 96% | viability, T/C (second compound 0.316 µM, first compound 1 µM) 109% | viability, T/C (second compound 0.316 µM, first compound 3.16 µM) 104% | viability, T/C (second compound 0.316 µM, first compound 10 µM) 96.5% | viability, T/C (second compound 1 µM, first compound 0.0316 µM) 95.5% | viability, T/C (second compound 1 µM, first compound 0.1 µM) 92.4% | viability, T/C (second compound 1 µM, first compound 0.316 µM) 93.9% | viability, T/C (second compound 1 µM, first compound 1 µM) 88% | viability, T/C (second compound 1 µM, first compound 3.16 µM) 110% | viability, T/C (second compound 1 µM, first compound 10 µM) 85.7% | viability, T/C (second compound 3.16 µM, first compound 0.0316 µM) 87.9% | viability, T/C (second compound 3.16 µM, first compound 0.1 µM) 87.1% | viability, T/C (second compound 3.16 µM, first compound 0.316 µM) 83.8% | viability, T/C (second compound 3.16 µM, first compound 1 µM) 87.8% | viability, T/C (second compound 3.16 µM, first compound 3.16 µM) 84.9% | viability, T/C (second compound 3.16 µM, first compound 10 µM) 80% | viability, T/C (second compound 10 µM, first compound 0.0316 µM) 73.9% | viability, T/C (second compound 10 µM, first compound 0.1 µM) 79.6% | viability, T/C (second compound 10 µM, first compound 0.316 µM) 79.8% | viability, T/C (second compound 10 µM, first compound 1 µM) 75.3% | viability, T/C (second compound 10 µM, first compound 3.16 µM) 78.1% | viability, T/C (second compound 10 µM, first compound 10 µM) 66.8%

NC(=O)C(=Cn1cnc(-c2cc(C(F)(F)F)cc(C(F)(F)F)c2)n1)c1cncnc1 + Cc1c(S(C)(=O)=O)c(-c2cc(F)cc(N3CCN(c4ccc(NS(=O)(=O)c5ccc(NC(CCN6CCC(C(=O)OCCCP(=O)(O)O)CC6)CSc6ccccc6)c(S(=O)(=O)C(F)(F)F)c5)cc4)CC3)c2)c(-c2ccc(Cl)cc2)n1C(C)C
active: viability, T/C (second compound 0.1 µM, first compound 0.0949 µM) 4.69% | viability, T/C (second compound 0.1 µM, first compound 0.3 µM) 1.47% | viability, T/C (second compound 0.316 µM, first compound 0.0949 µM) 3.08% | viability, T/C (second compound 0.316 µM, first compound 0.3 µM) 1.16% | viability, T/C (second compound 1 µM, first compound 0.0949 µM) 2.35% | viability, T/C (second compound 1 µM, first compound 0.3 µM) 1.29% | viability, T/C (second compound 3.16 µM, first compound 0.0949 µM) 2.09% | viability, T/C (second compound 3.16 µM, first compound 0.3 µM) 1.75% | viability, T/C (second compound 10 µM, first compound 0.0949 µM) 2.89% | viability, T/C (second compound 10 µM, first compound 0.3 µM) 1.28%
19.3 nM: IC50 (second compound 0.1 µM)
inactive: viability, T/C (second compound 0.1 µM, first compound 0.000949 µM) 101% | viability, T/C (second compound 0.1 µM, first compound 0.003 µM) 89.2% | viability, T/C (second compound 0.1 µM, first compound 0.00949 µM) 72.1% | viability, T/C (second compound 0.1 µM, first compound 0.03 µM) 38.7% | viability, T/C (second compound 0.316 µM, first compound 0.000949 µM) 95.5% | viability, T/C (second compound 0.316 µM, first compound 0.003 µM) 89% | viability, T/C (second compound 0.316 µM, first compound 0.00949 µM) 78.9% | viability, T/C (second compound 0.316 µM, first compound 0.03 µM) 43.4% | viability, T/C (second compound 1 µM, first compound 0.000949 µM) 91.2% | viability, T/C (second compound 1 µM, first compound 0.003 µM) 83.5% | viability, T/C (second compound 1 µM, first compound 0.00949 µM) 72.3% | viability, T/C (second compound 1 µM, first compound 0.03 µM) 42.8% | viability, T/C (second compound 3.16 µM, first compound 0.000949 µM) 78% | viability, T/C (second compound 3.16 µM, first compound 0.003 µM) 78.5% | viability, T/C (second compound 3.16 µM, first compound 0.00949 µM) 64.1% | viability, T/C (second compound 3.16 µM, first compound 0.03 µM) 42.5% | viability, T/C (second compound 10 µM, first compound 0.000949 µM) 76.4% | viability, T/C (second compound 10 µM, first compound 0.003 µM) 74.3% | viability, T/C (second compound 10 µM, first compound 0.00949 µM) 59.6% | viability, T/C (second compound 10 µM, first compound 0.03 µM) 33.5%
21.3 nM: IC50 (second compound 1 µM)
19.8 nM: IC50 (second compound 3.16 µM)
23.3 nM: IC50 (second compound 0.316 µM)
14.7 nM: IC50 (second compound 10 µM)
